Measurements taken from ChEMBL document CHEMBL5370659 (J Med Chem, 2023).

Assays:
[1] = AUC (0 to last) in Sprague-Dawley rat at 10 mg/kg, iv measured upto 1440 mins by LC-MS/MS analysis; assay type: ADME, organism-based; set-up: time < 1440 min, dose 10 mg/kg, route iv; details: in vivo
[2] = Drug uptake in Sprague-Dawley rat lung at 20 mg/kg, po measured at 0.5 hrs by LC-MS/MS analysis; assay type: ADME, organism-based; details: read-out: Drug uptake
[3] = target: T1, Tryptophan 5-hydroxylase 2 (Homo sapiens, UniProt Q8IWU9); assay: Inhibition of recombinant MBP-tagged full length human THP2 using L-Trp as substrate assessed as formation of 5-HTP by measuring fluorescent property
T1 sequence (Q8IWU9 whole entry): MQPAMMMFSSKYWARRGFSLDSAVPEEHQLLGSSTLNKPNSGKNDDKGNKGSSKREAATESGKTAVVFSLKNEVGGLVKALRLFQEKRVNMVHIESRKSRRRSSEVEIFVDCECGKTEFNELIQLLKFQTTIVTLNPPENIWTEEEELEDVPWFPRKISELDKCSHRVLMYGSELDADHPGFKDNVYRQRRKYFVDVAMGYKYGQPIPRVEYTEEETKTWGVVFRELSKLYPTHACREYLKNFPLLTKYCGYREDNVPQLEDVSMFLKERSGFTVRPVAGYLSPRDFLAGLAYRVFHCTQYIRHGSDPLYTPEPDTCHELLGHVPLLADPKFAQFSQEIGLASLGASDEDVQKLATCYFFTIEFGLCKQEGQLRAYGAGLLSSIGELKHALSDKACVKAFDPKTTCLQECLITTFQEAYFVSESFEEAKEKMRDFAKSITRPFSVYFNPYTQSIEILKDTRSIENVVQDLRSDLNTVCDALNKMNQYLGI

[4] = AUC (0 to infinitive) in CD-1 (ICR) mouse at 50 mg/kg, po measured upto 1440 mins by LC-MS/MS analysis; assay type: ADME, organism-based; set-up: time < 1440 min, dose 50 mg/kg, route po; details: in vivo
Cytochrome P450 2D6 = Cytochrome P450 2D6 (Homo sapiens, UniProt P10635); assay: Inhibition of CYP2D6 in human liver microsome using dextromethorphan as substrate measured upto 50 uM incubated for 10 mins followed by NADPH addition incubated for 10 mins by LC/MS/MS analysis; assay type: ADME; details: microsomes, 20 min
[5] = AUC (0 to infinitive) in Sprague-Dawley rat at 10 mg/kg, iv measured upto 1440 mins by LC-MS/MS analysis; assay type: ADME, organism-based; set-up: dose 10 mg/kg, time < 1440 min, route iv; details: in vivo
[6] = AUCExtra in Sprague-Dawley rat at 10 mg/kg, iv measured upto 1440 mins by LC-MS/MS analysis; assay type: ADME, organism-based; details: in vivo, 24 h
[7] = Drug uptake in CD-1 (ICR) mouse lung at 50 mg/kg measured 0.5 hrs by LC-MS/MS analysis; assay type: ADME, organism-based; details: read-out: Drug uptake

Sequence of Cytochrome P450 2D6 (P10635 whole entry): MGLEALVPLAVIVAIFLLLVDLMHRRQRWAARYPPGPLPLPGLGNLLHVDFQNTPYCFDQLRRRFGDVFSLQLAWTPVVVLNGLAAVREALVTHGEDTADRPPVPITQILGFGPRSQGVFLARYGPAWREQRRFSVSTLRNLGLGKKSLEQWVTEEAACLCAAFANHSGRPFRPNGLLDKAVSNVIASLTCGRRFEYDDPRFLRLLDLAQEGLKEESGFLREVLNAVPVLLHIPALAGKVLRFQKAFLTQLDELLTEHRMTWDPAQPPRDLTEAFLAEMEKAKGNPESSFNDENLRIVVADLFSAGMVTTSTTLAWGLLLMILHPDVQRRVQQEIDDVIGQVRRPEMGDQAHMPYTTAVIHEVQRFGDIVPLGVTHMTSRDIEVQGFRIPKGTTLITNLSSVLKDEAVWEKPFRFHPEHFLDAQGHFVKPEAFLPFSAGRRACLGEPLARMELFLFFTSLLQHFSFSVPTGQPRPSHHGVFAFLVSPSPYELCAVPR

Question: Which results are given for `CCn1c(=O)[nH]c(=O)c2c1nc(Cc1cn3cc(C)sc3n1)n2CC1COC1`?
Answer: AUC(0-t) at 24 h [1]: 5000 ng·h/mL; concentration at 0.5 h [2]: 482 ng/g; IC50 [3]: 16 nM; AUC(0-inf) [4]: 8580 ng·h/mL; inhibition (INH) (Cytochrome P450 2D6): Not Active; AUC(0-inf) [5]: 5030 ng·h/mL; %AUCextra [6]: 0.46%; concentration at 0.5 h [7]: 1720 ng/g
